Where two headings read alike, the source gives them in different places. Positions of bridges follow the written chain, without caps; N, C: chain ends. Residues, ends and D or L forms follow the SMILES beside them. No end group written: not given here.
Tests used:
[1] = target: T1, NMDA receptor complex, glycine co-agonist site (Rattus norvegicus, UniProt P35439); format: biochemical; conditions: rat hippocampus membranes, in the presence of 7-chlorokynurenic acid, ± S.E.M.
T1 construct: Crude synaptic membranes used in the assay were prepared using rat hippocampal tissue; from tissue; host or cells: rat hippocampus, crude synaptic membranes
Method: Polypeptides or amino acid compositions of the instant invention were tested for the ability to mimic the glycine co-agonist effect on the NMDA receptor using a previously validated [^3 H]MK-801 binding assay. This functional assay takes advantage of the fact that increased [^3 H]MK-801 binding by NMDA receptors can only occur upon receptor-binding channel opening. This is because the MK-801 binding site is located inside the ionophore of the NMDA receptor complex, and is thus only accessible upon the opening of the receptor complex channel. Thus increased binding of [^3 H]MK-801 is directly correlated with increased channel opening, in this assay, triggered by the binding of the polypeptides or amino acid compositions of the instant invention to the glycine co-agonist binding site.
To further refine the assay, a selective antagonist of the glycine binding site of the NMDA receptor-channel complex is added to the assay. The normal action of 7-chlorokynurenic acid is to selectively bind to the glycine site, and inhibit NMDA receptor channel opening, and thus inhibit the binding of [^3 H]MK-801 to the NMDA receptor complex.
Crude synaptic membranes used in the assay were prepared using rat hippocampal tissue (male Sprague-Dawly rats) and extensively washed using the procedures described previously (Haring et al., 1991, J. Neurochem. 57:323-331). Briefly, tissue which has been stored at -80-- C is homogenized in ice cold 5 mM Tris (pH 7.4) using a Brinkman Polytron® and then pelleted by centrifugation at 48,000 g for 20 minutes. The resulting supernatant is discarded, and the membranes washed three times in cold buffer. Pellets are then resuspended in 5 mM EDTA, 15 mM Tris (pH 7.4), and incubated for one hour at 37-- C. The membrane suspensions are then pelleted by centrifugation at 48,000g for 20 min and stored at -80-- C until use in the assay.
Frozen pellets are thawed at room temperature and washed three times by resuspension in 5 mM Tris (pH 7.4) and centrifugation. Final pellets are suspended at concentrations of 2 to 3 mg/ml in 5 mM Tris buffer (pH 7.4). Binding reactions are initiated by the addition of 200-- g of freshly prepared membranes to reaction mixtures (about 1 ml final volume) containing 1 nM [^3 H]MK-801 at 25-- C in the presence of a range of peptide concentrations and 60-- M 7-chlorokynurenic acid. Non-specific binding is determined using 10-- M unlabelled MK-801. Binding reactions are terminated by filtration through a Brandel 24-well cell harvester onto Whatman GF/B glass filters that have been presoaked in 0.25% polyethyleneimine for 30 minutes.

[2] = target: T2, mouse NMDA receptor subunits z1 and e1 expressed in oocytes (Mus musculus, UniProt P35438); experiment: Electrophysiological NMDA specific activity assay, two-electrode voltage clamp in oocytes; format: cell-based
T2 construct: expressed in transfected cells
Method: Electrophysiological recordings are made with two-electrode voltage-clamp techniques, and standard oocyte expression system preparations (see Leonard and Kelso, 1990, Neuron 4:53-60; Kelso et al., 1992, J. Physiology 449:705-718). Oocytes are isolated and injected with mRNA for mouse NMDA receptor subunits: 70 nl of z1 (-- 1) RNA is co-injected with an equal volume of e1 (-- 1) RNA. After incubation for two days, recordings are made while clamping membrane potential at -80 mV. The standard recording solution contains 95 mM NaCl, 2 mM KCl, 3.8 mM BaCl2, and 5 mM HEPES. Mg^2+ is omitted because it blocks NMDA currents at some potentials; Ca^2+ is omitted because it can trigger the oocyte's endogenous Ca^2+ -dependent chloride current. Responses are evoked by the continuous perfusion of 3-5 ml of NMDA containing solutions. The recording chamber has a volume of about […].

[3] = target: T1, NMDA receptor complex, glycine co-agonist site; format: biochemical; conditions: in the presence of 10 μM L-glutamate, ± S.E.M.
[4] = test system: rabbits; conditions: peripheral injections; cited from earlier work

| NMDA current (FIG. 3B) ([2]; 100-- M NMDA with 10-- M glycine, -80 mV) | Compound | [3H]MK-801 binding, percentage of control binding ([1]; 10^-5 M peptide) | [3H]MK-801 binding, percentage of control binding ([1]; 10^-6 M peptide) | [3H]MK-801 binding, percentage of control binding ([1]; 10^-7 M peptide) | [3H]MK-801 binding, percentage of control binding ([1]; 10^-8 M peptide) | [3H]MK-801 binding, percentage of control binding ([1]; 10^-9 M peptide) | NMDA current (FIG. 3B) ([2]; NMDA alone, same cell) | [3H]MK-801 binding, percentage of control binding ([3]; 10^-5 M peptide) | [3H]MK-801 binding, percentage of control binding ([3]; 10^-6 M peptide) | [3H]MK-801 binding, percentage of control binding ([3]; 10^-7 M peptide) | [3H]MK-801 binding, percentage of control binding ([3]; 10^-8 M peptide) | learning rates in trace eyeblink conditioning [4] |
| --- | --- | --- | --- | --- | --- | --- | --- | --- | --- | --- | --- | --- |
|  | C[C@@H](O)[C@@H]1NC(=O)[C@@H]2CCCN2C(=O)[C@@H]2CCCN2C(=O)[C@H]([C@@H](C)O)NC(=O)[C@H](CO)NC(=O)[C@H](Cc2ccc(O)cc2)NC(=O)[C@H](Cc2c[nH]cn2)NC(=O)[C@H](CCC(N)=O)NC(=O)[C@H](CCC(N)=O)NC(=O)[C@@H](N)CSSC[C@@H](C(=O)O)NC1=O [NT-10] (H-CQQHYSTPPTC-OH; disulfide 1-11) | 116 ± 12% | 128 ± 4% | 114 ± 3% | 90 ± 8% | 100 ± 2% |  |  |  |  |  |  |
|  | SVQAELDLAVYYSQQHYSTPPT [NT-6] | 91 ± 7% | 96 ± 1% | 101 ± 15% | 101 ± 9% | 95 ± 6% |  |  |  |  |  |  |
|  | CN[C@H](CC(=O)O)C(=O)O [NMDA, N-methyl-D-aspartate] |  |  |  |  |  | about 7 nA |  |  |  |  |  |
|  | SQQHYSTPPTS [NT-11] | 127 ± 21% | 120 ± 11% | 118 ± 4% | 111 ± 4% | 96 ± 23% |  |  |  |  |  |  |
|  | VYYSQQHYSTPPT [NT-4] | 109 ± 10% | 110 ± 1% | 116 ± 2% | 106 ± 6% | 106 ± 2% |  |  |  |  |  |  |
|  | FTISSVQAELDLAVYYSQQHYSTPPT [NT-7] | 100 ± 3% | 104 ± 0% | 97 ± 1% | 103 ± 4% | 96 ± 4% |  |  |  |  |  |  |
|  | QQHYSTPPTFGGG [NT-8] | 115 ± 6% | 107 ± 6% | 108 ± 4% | 110 ± 5% | 105 ± 7% |  |  |  |  |  |  |
|  | C[C@@H](O)[C@H](N)C(=O)N1CCC[C@H]1C(=O)N1CCC[C@H]1C(=O)O [NT-14, Thr-Pro-Pro] (H-Thr-Pro-Pro-OH) | 95 ± 4% | 98 ± 8% | 96 ± 5% | 101 ± 1% | 89 ± 6% |  |  |  |  |  |  |
|  | KASQDVSTTVA [NT-1] |  |  |  |  |  |  | 73 ± 6% | 100 ± 2% | 97 ± 2% |  |  |
|  | SASYRYT [NT-2, Ser-Ala-Ser-Tyr-Arg-Tyr-Thr] |  |  |  |  |  |  | 77 ± 12% | 106 ± 4% | 109 ± 15% | 80 ± 9% |  |
|  | QQHYSTPPT [NT-3] | 90 ± 1% | 111 ± 11% | 121 ± 4% | 123 ± 0% | 112 ± 20% |  |  |  |  |  |  |
|  | QQHYSTPPTFGGGTKLE [NT-9] | 120 ± 3% | 112 ± 10% | 125 ± 5% | 126 ± 7% | 104 ± 12% |  |  |  |  |  |  |
|  | EDLAVYYSQQHYSTPPT [NT-5] | 112 ± 4% | 106 ± 2% | 114 ± 2% | 100 ± 9% | 109 ± 8% |  |  |  |  |  |  |
|  | N[C@@H]1CONC1=O [D-cycloserine] |  |  |  |  |  |  |  |  |  |  | doubled |
|  | C[C@@H](O)[C@H](NC(=O)[C@@H]1CCCN1C(=O)[C@@H]1CCCN1)C(=O)O [NT-15, Pro-Pro-Thr] (H-Pro-Pro-Thr-OH) | 93 ± 1% | 108 ± 12% | 100 ± 7% | 103 ± 2% | 99 ± 21% |  |  |  |  |  |  |
|  | C[C@@H](O)[C@H](N)C(=O)N1CCC[C@H]1C(=O)N[C@H](C(=O)O)[C@@H](C)O [NT-17, Thr-Pro-Thr] (H-Thr-Pro-Thr-OH) | 119 ± 21% | 117 ± 14% | 128 ± 9% | 125 ± 17% | 122 ± 23% |  |  |  |  |  |  |
|  | QQHYS [NT-12, Gln-Gln-His-Tyr-Ser] | 106 ± 2% | 106 ± 9% | 95 ± 7% | 104 ± 10% | 95 ± 21% |  |  |  |  |  |  |
| about 284 nA | NCC(=O)O [glycine] |  |  |  |  |  |  |  |  |  |  |  |
|  | C[C@@H](O)[C@H](N)C(=O)N1CCC[C@H]1C(=O)N1CCC[C@H]1C(=O)N[C@H](C(=O)O)[C@@H](C)O [NT-13, Thr-Pro-Pro-Thr] (H-TPPT-OH) | 117 ± 7% | 129 ± 10% | 110 ± 10% | 103 ± 8% | 97 ± 8% |  |  |  |  |  |  |
|  | O=C(O)[C@@H]1CCCN1C(=O)[C@@H]1CCCN1 [NT-16, Pro-Pro] (H-Pro-Pro-OH) | 117 ± 12% | 103 ± 3% | 97 ± 6% | 89 ± 8% | 83 ± 9% |  |  |  |  |  |  |
